Experimental data taken from PubChem BioAssay (NCI).
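The compound was tested at five concentrations on cells cultured in 96-well plates, with a 48-hour exposure period. At the TGI there is no net growth.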

Experiments:
Assay in all cases: NCI tumour cell line growth inhibition, 48 h
[1] = system: HOP-62 NSCLC
[2] = system: SN12C renal
[3] = system: SF-268 CNS
[4] = system: UACC-62 melanoma
[5] = system: RXF 393 renal
[6] = system: SF-295 CNS
[7] = system: OVCAR-4 ovarian
[8] = system: MOLT-4 leukemia
[9] = system: HL-60(TB) leukemia
[10] = system: UO-31 renal
[11] = system: U251 CNS
[12] = system: UACC-257 melanoma
[13] = system: NCI-H226 lung
[14] = system: SW-620 colon
[15] = system: KM12 colon
[16] = system: EKVX NSCLC
[17] = system: HT29 colon
[18] = system: NCI-H460 lung
[19] = system: OVCAR-3 ovarian
[20] = system: LOX IMVI melanoma

Row | Structure (SMILES) | TGI [1] [µM] | TGI [2] [µM] | TGI [3] [µM] | TGI [4] [µM] | TGI [5] [µM] | TGI [6] [µM] | TGI [7] [µM] | TGI [8] [µM] | TGI [9] [µM] | TGI [10] [µM] | TGI [11] [µM] | TGI [12] [µM] | TGI [13] [µM] | TGI [14] [µM] | TGI [15] [µM] | TGI [16] [µM] | TGI [17] [µM] | TGI [18] [µM] | TGI [19] [µM] | TGI [20] [µM]
1 | C[n+]1c2ccccc2c(NC(CS)C(=O)O)c2ccccc21 (centres undefined) | 73.5 | > 100 | 70.2 | 34.2 | 60.7 | 77.7 | > 100 | 38.6 | 44.8 | 66.6 | 89.4 | 92.9 | > 100 | > 100 | 64.9 | > 100 | > 100 | > 100 | 71.9 | –
2 | COC(=O)c1cc2cc3c(c(O)c2c(=O)o1)O[C@@]1(Oc2c(O)c4c(c(O)c2[C@H]1OC1CC(OC)C(O)C(C)O1)C(=O)C=C(OC)C4=O)[C@H](O)C3 (some centres undefined) | 5.37 | 12.1 | 5.19 | 1.78 | 3.25 | > 29.6 | 2.89 | 6.22 | 3.39 | > 30.4 | – | 14.1 | 17.1 | > 39.8 | 9.51 | 12.3 | > 20.3 | > 21.6 | > 23.4 | –
3 | N=[N+]=CC(=O)CCC(NC(=O)C(CCC(=O)C=[N+]=N)NC(=O)CCC(N)C(=O)O)C(=O)O (centres undefined) | > 100 | > 100 | > 100 | > 100 | > 100 | > 100 | > 100 | > 100 | > 100 | > 100 | > 100 | > 100 | > 100 | > 100 | > 31.6 | > 100 | > 100 | > 100 | > 100 | > 100
4 | C1CSC(=[N+]2CC[N+](=C3SCCS3)CC2)S1 | > 100 | > 100 | > 100 | > 100 | > 100 | > 100 | > 100 | > 100 | > 100 | > 100 | > 100 | > 100 | – | > 100 | > 100 | > 100 | > 100 | > 100 | > 100 | > 100
5 | Cc1c(Cl)c(S(N)(=O)=O)cc2c1NC=NS2(=O)=O | > 100 | > 100 | > 100 | > 100 | > 100 | > 100 | > 100 | > 100 | – | > 100 | > 100 | > 100 | > 100 | > 100 | > 100 | > 100 | > 100 | > 100 | > 100 | > 100
6 | C/C(=N\NC(=S)N1CCN(C)CC1)c1nc2ncccc2[nH]1 | > 100 | > 100 | > 100 | > 100 | – | > 100 | > 100 | > 100 | > 100 | > 100 | > 100 | > 100 | > 100 | > 100 | > 100 | > 100 | > 100 | > 100 | > 100 | > 100
7 | Oc1ccc(Cc2nccc3cc(O)c(O)cc23)cc1O | > 100 | > 100 | > 100 | > 100 | > 100 | > 100 | > 100 | > 100 | > 100 | > 100 | > 100 | 87.6 | > 100 | > 100 | > 100 | > 100 | > 100 | > 100 | > 100 | > 100
